From patent US10774049B2, “PU.1 inhibitors” (Albert Einstein College of Medicine, priority 2016, dated 2020)
Counter-ions that a name gives are not always drawn.

Legend:
LSK cells = assay: Colony assay of Lin−Sca1+c-Kit+ (LSK) cells from wildtype mice; type: cell-based
Method: FIG. 5A-5F. PU.1 inhibitors decrease the granulo-monocytic potential of hematopoietic stem and progenitor cells, which is rapidly reversible. (A-C) Lin-Sca1+c-Kit+(LSK) cells were plated in semi-solid media containing PU.1 inhibitors. (A) Number of colony-forming unit granulocyte (CFU-G), monocyte (CFU-M), granulo/monocyte (CFU-GM), granulo/erythrocyte/monocyte/megakaryocyte (CFU-GEMM), burst or colony forming unit erythroid (B/CFU-E) and immature colonies after treatment. Detailed histograms of CFU-GM, CFU-G and CFU-M numbers are shown. Data represent the means±SD of 3 independent experiments. (B) Cells coming from colony assays after vehicle or DB2313 treatment. Cells were cytospun and stained with May-Grünwald Giemsa. Scale bar is equal to 20 μm. (C) FACS analysis showing the percentage of CD11b+Gr1−, CD11b+Gr1+, CD11b−Gr1+, CD41+Ter119−, CD41+Ter119+, CD41−Ter119+ populations after colony assays. Data represent the means±SD of 4 independent experiments. (D,E) Cells coming from colony assays treated with DB2313 were replated in the presence (+DB2313) or in the absence of DB2313 (−DB2313) and the percentage of CD11b+Gr1−, CD11b+Gr1+ cells was assessed one week later after culture in semi-solid media. (D) Representative FACS plots (E) Percentage of CD11b+Gr1− and CD11b+Gr1+ populations. Data represent the means±SD of 3 independent experiments; fold change compared to replating with DB2313 is shown. (F) Serial replating assay with D2313 continuous treatment (n=3). Data represent the means±SD of technical triplicate from one representative experiment. *P<0.05, **P<0.01, ***P<0.001,
In order to determine the effect of our PU.1 inhibitors on normal hematopoietic differentiation, we sorted immature Lin^−Sca1^+c-Kit^+ (LSK) cells from wildtype mice and studied their clonogenic potential following treatment with either DB1976, DB2115, or DB2313. […] Overall, the numbers of viable cells per colony were reduced upon PU.1 inhibitor treatment, again consistent with an effect of PU.1 inhibition on more mature, differentiating cells. […]

PU.1 URE−/− AML cells [1] = assay: Transplantation of in vitro treated PU.1 URE−/− AML cells into sublethally irradiated mice; type: in vivo, mouse
Method: FIG. 6A-6H. Treatment with PU1 inhibitors increases survival and decreases tumor burden in vivo. (A) Experimental scheme. URE−/− cells were treated in vitro with DB2313 or Vehicle and counted after 2 days of culture. 200·10^3 viable cells per mouse were injected retroorbitally into sublethally irradiated mice. Mice were sacrificed at 6 weeks or used for survival analyses. (B) Kaplan-Meier survival analysis of transplanted mice (x animals for vehicle group, xx for DB2313 group, from 2 independent experiments, p=). (C,D) Spleen and liver weight 6 weeks after transplant (8 animals for vehicle group, 7 for DB2313 group). Data represent means±SD, each mouse is represented by an individual dot. (E) Chimerism of URE−/− cells in the bone marrow 6 weeks after transplant (14 animals per group from 2 independent experiments).
To assess the effect of PU.1 inhibitors on AML in vivo, we treated PU.1 URE^−/− AML cells for 2 days in vitro and injected 2×10^5 viable cells in sublethally irradiated recipient mice (FIG. 6A).

PU.1 URE−/− AML cells [2] = assay: Colony forming capacity and serial replating of PU.1 URE−/− AML cells; type: cell-based, murine
Method: FIG. 2A-2F. PU.1 inhibition decreases cell growth and increases apoptosis of PU.1^1″ leukemic cells. (A) Chemical structures of heterocyclic diamidines DB1976, DB2115 and DB2313 used in this study. (B) Relative cell viability of URE−/− cells and BAF3 cells after treatment with increasing concentrations of vehicle or small molecules. Cell viability was assessed after 48 h. Data represent means of technical triplicate from one representative experiment; fold change compared to Vehicle is shown. (C) Cell proliferation assay of URE−/− after treatment with DB1976 (n=5), DB2115 (n=3), DB2313 (n=3), of MOLM13 cells (n=3), and THP1 cells (n=3). Cell counting was performed every 24 h during 4 days. Data represent means±SD of technical triplicate from one representative experiment. Forward strand: SEQ ID NO:3, and Reverse strand: SEQ ID NO:4; derived from the λB motif from the murine Ig lambda 2-4 enhancer, a known native PU.1-dependent gene and specific binding site for PU.1. (D) Clonogenic capacities of URE−/− cells after treatment with DB1976 (n=5), DB2115 (n=3) and DB2313 (n=4) in the first plating, and after serial replatings (n=3). Data represent means±SD of technical triplicate from one representative experiment. (E) Apoptotic cells (Annexin-V+Dapi−) fraction in URE−/− cells after 48 h of treatment with DB1976 (n=6), DB2115 (n=6) and DB2313 (n=3). […]

[3] = second plating, vs replating with compound

Row | SMILES | toxicity on LSK cells (LSK cells; majority of colonies unidentifiable, majority of dead cells) | mean chimerism, AML cell engraftment in the bone marrow (PU.1 URE−/− AML cells [1]; 6 weeks after transplant, vehicle 55%) [%] | splenic mean weight (PU.1 URE−/− AML cells [1]; 6 weeks post transplantation, vehicle 410 mg) [mg] | liver mean weight (PU.1 URE−/− AML cells [1]; 6 weeks post transplantation, vehicle 2,347 mg) | median latency (survival of recipient mice) (PU.1 URE−/− AML cells [1]; cells treated 2 days in vitro, vehicle 44 days) [days] | histology: blast infiltration and disruption of splenic architecture (PU.1 URE−/− AML cells [1]; in comparison to vehicle group) | infiltration of the liver by leukemic blasts (PU.1 URE−/− AML cells [1]; in comparison to vehicle group) | increase of production of mature granulocytes after removing the treatment (LSK cells; [3]) [fold] | increase of production of mature monocytes after removing the treatment (LSK cells; [3]) [fold] | clonogenic capacity in serial replating, 4th and higher rounds of plating (PU.1 URE−/− AML cells [2]) | clonogenicity in serial replating, second and third rounds of plating (PU.1 URE−/− AML cells [2])
1 | N=C(N)c1ccc2nc(-c3ccc(-c4nc5ccc(C(=N)N)cc5[nH]4)[se]3)[nH]c2c1 [DB1976] | appeared to show toxicity | – | – | – | – | – | – | – | – | – | –
2 | CC(C)NC(=N)c1ccc2nc(-c3ccc(OCc4cccc(COc5ccc(-c6nc7ccc(C(=N)NC(C)C)cc7[nH]6)cc5)c4F)cc3)[nH]c2c1 [DB2313, 3-Bis{4[4(5)-N-isopropylamidinobenzimidazolyl]phenoxymethyl]}-2-fluorobenzene tetrahydrochloride] | – | 33 | 243 | 1,548 mg | 68 | significantly less pronounced effects | substantially reduced | 4 | 22 | complete disruption | highly significant decrease
